One data set concerns OSC-3 cells. The data set can be described thus: PBC NPs in OSC-3 cells (lysosomes, apoptosis, photodynamic therapy). In kind it is cell-based. As to conditions: LC3-GFP-RFP imaging and immunoblotting. On the technique in general: In western blotting, separated proteins are transferred to a membrane and probed.
A further data set concerns HT29 tumours. The experiment in a line: HT29 xenograft model. As to conditions: mice bearing HT29 tumours.
A further data set deals with HCT116. The data set can be described thus: MTS cell viability assay. It is filed as cell-based. As to conditions: Homo sapiens, HCT-116, 48 h; read-out: IC50 values from the 48 h MTS assay (μM) HCT116. The method, then: (§1) Cell line and cell culture. The human pancreatic cancer cell lines (MIA PaCa-2, BXPC3, and PANC-1) were originally purchased from ATCC and were kindly provided by Dr. Shiro Urayama's Lab. HT29, HCT116, H460, MCF7, NIH/3T3, and IMR-90 cell lines were purchased from ATCC. Bone marrow cells were collected from the leg bone marrows of FVB/N mice. All the cells were cultured at 37° C. in a humidified atmosphere of 5% CO2/95% air using the corresponding medium supplemented with 10% fetal bovine serum, […] according to ATCC protocol. All the cell lines have been tested for mycoplasma contamination routinely.
(§2) Cell viability, cell growth and colony formation. Cell viability was assessed by the MTS assay. Briefly, cells in 96-well plates (4,000 cell per well) were treated as indicated, followed by the incubation with MTS regents for 4 h. OD values (490 nm) were determined via a microplate reader. Results were shown as the average cell viability calculated from the formula of [(ODtreat−ODblank)/(ODcontrol−ODblank)×100%]. Drug combination data were analyzed by Combenefit 2.02. In cell growth assay, cells in 6-well plates (50,000 cell per well) were treated as indicated and were counted manually every 24 h. Colony formation assay was also performed on 6-well plates with a starting density of 1,000-2,000 cells per well. After incubated as indicated for 10-20 days, cells were washed with PBS and stained with the solution of crystal violet and methanol for 20 min.
On the technique in general: Tetrazolium assays rely on reduction of a dye to a coloured formazan, in cell work by metabolically active cells.

Data set [1] has as its system autophagy (LC3B-II, SQSTM1/p62) in MIA PaCa-2 cells. The data set can be described thus: Autophagy inhibition (immunoblot, LC3B-GFP imaging, TEM). It is filed as cell-based, human. As to conditions: western blotting, compared to untreated and Lys05-treated cells. The method, then: LC3B-GFP imaging. Cells in a 96-well plate (5,000 cell per well) were transfected by the autophagy sensor LC3B-GFP (Thermo Fisher) for 12 h. After treated as indicated for 4 h, cells were visualized by a fluorescence microscope (Olympus). The puncta per well were quantified using ImageJ 1.51s.
Western Blot. The cell or tumour samples were lysed with RIPA Buffer (Thermo Fisher). After centrifugation at 4° C. (15 min, 12,000×g), the concentrations of proteins in supernatant and determined by Bradford Protein Assay dye (Bio-Rad). Immunoblotting was performed routinely and were developed using a ChemiDoc™ MP imaging system.
TEM of cells and tumour tissue. MIA PaCa-2 cells in 8-well slide plates (30,000 cell per well, Lab-Tek) were treated as indicated for 48 h. The freshly harvested tumours were cut into 1 mm^3 pieces. Samples were fixed with the 0.1 M cacodylate buffer containing 2.5% glutaraldehyde plus 2% paraformaldehyde, and transferred onto carbon square mesh, followed by observation under Talos L120C TEM.

In another data set the test system is MIA PaCa-2. The data set can be described thus: MTS cell viability assay. As to conditions: read-out: IC50 (μM) in the 24 h treatment MIA PaCa-2. It is filed as cell-based, human. The method, then:
as §1, §2

The test system of a further data set is Red blood cells. The data set can be described thus: pH-dependent haemolysis test. In kind it is cell-based. As to conditions: whole pH range, same concentration (50 μM, 4 h).
A short description of data set [2]: Titration with hydrochloric acid (pH buffering capacity). It is filed as physicochemical. The conditions noted are these: 1 mM, 0.1 M HCl.
Another data set relates to HT29. The data set can be described thus: MTS cell viability assay. In kind it is cell-based. As to conditions: read-out: IC50 (μM) in the 24 h treatment HT29. The method, then: as §1, §2
Data set [3] deals with three pancreatic cancer cell lines (MIA PaCa-2, BxPC-3, and PANC-1) and two colon cancer cell lines (HT29 and HCT116). The experiment in a line: 48 h MTS assay on pancreatic and colon cancer cell lines. It is filed as cell-based. The method, then: as §2
In vitro antitumour activity of BAQ derivatives. To systematically investigate the antitumour effects in vitro, three pancreatic cancer cell lines (MIA PaCa-2, BxPC-3, and PANC-1) and two colon cancer cell lines (HT29 and HCT116) were selected for a 48 h MTS assay. […] The improved anticancer activity of BAQ ONNs is attributable to their multiple functions in inducing LMP, lysosomal dysfunction and autophagy inhibition in cancer cells; these effects are considered to be important triggers of apoptosis. To examine the proapoptotic effects of BAQ ONNs, apoptosis signals in MIA PaCa-2 and HT29 cells was subsequently detected. […] Lys05, the control, increased apoptotic signals in a concentration-dependent manner, but its effect at a high concentration close to the IC50 was still milder than those of the low concentrations of BAQ ONNs.

The subject of data set [4] is various cancer cell lines. The data set can be described thus: Preliminary MTS screening, 24 h. In kind it is cell-based. The conditions noted are these: 24 h MTS. The method, then:
To verify the therapeutic effects of BAQ12-BAQ18, a preliminary screening was conducted using an MTS assay on various cancer cell lines. […] This decrease was due to gradual declines in the detergence and H^+ buffering capacity of compounds. Based on the results above, BAQ12 and BAQ13 were then selected as representatives for construction of BAQ ONNs in the following studies.
as §2

The test system of a further data set is BXPC-3. The data set can be described thus: MTS cell viability assay. As to conditions: 24 h; read-out: IC50 (μM) in the 24 h treatment BXPC-3. It is filed as cell-based, human. The method, then:
as §1, §2

Another data set deals with PANC-1. The data set can be described thus: MTS cell viability assay. As to conditions: 24 h; read-out: IC50 (μM) in the 24 h treatment PANC-1. It is filed as cell-based, human. On the procedure: as §1, §2
Data set [5] can be described thus: Nanoparticle characterization of BAQ NPs (DLS, TEM). It is filed as physicochemical. As to conditions: assembled NPs in water. The method, then:
(§3) Preparation and characterization of BAQ ONNs. NPs were prepared through the re-precipitation method. BAQ derivatives in methanol were added dropwise into MilliQ water while stirring for 5 min (volume ratio, 1:10), and then homogenous NPs were obtained after rotary evaporation (40° C., 20 min), followed by the characterization with Zetasizer Nano ZS (Malvern). The TEM samples were prepared by dropping 0.5 mM NPs on carbon square mesh and dried naturally, which were then observed under the Talos L120C TEM (FEI) at an accelerating voltage of 80 kV. To determine the drug content in nanoformulations, the prepared drug-loaded NPs were cut off by centrifugal filter (ultracel-10 kDa, Millipore), and the absorbance of filtrate (diluted with DMSO, 1:10, volume ratio) was measured for calculation of drug concentrations.

A further data set deals with MCF-7. The experiment in a line: MTS cell viability assay. It is filed as cell-based. As to conditions: 24 h; read-out: IC50 (μM) in the 24 h treatment MCF-7. The method, then: as §1, §2
For another data set, the system named is H460. The experiment in a line: MTS cell viability assay. As to conditions: 24 h; read-out: IC50 (μM) in the 24 h treatment H460. In kind it is cell-based. The method, then: as §1, §2
The test system of another data set is MIA PaCa-2 cells. The data set can be described thus: RNA sequencing, differentially expressed genes. In kind it is cell-based, human. The conditions noted are these: 5 μM, 24 h, vs vehicle. The method, then: RNA-seq. Total RNA was extracted by the RNeasy Mini Kit (Qiagen, Germany) from the treated MIA PaCa-2 cells (5 μM, 24 h). Samples were submitted to the UC Davis Comprehensive Cancer Center's Genomics Shared Resource (GSR) for RNA-Seq analysis. Stranded RNA-Seq libraries were prepared from 100 ng total RNA using the NEBNext Ultra Directional RNA Library Prep Kit (New England BioLabs). Subsequently, libraries were combined for multiplex sequencing on an Illumina HiSeq 4000 System (2×150 bp, paired-end, >20×10^6 reads per sample). The data of normalized genes read counts were analyzed using fold change and t test. The Differentially expressed genes (DEGs) were collected for the signaling pathways enrichment by Funrich software 3.1.3. The gene sets were from MSigDB database (Broad Institute). GSEA was performed using GSEA version 3.0 in KEGG gene sets category online, with the following parameters: n=1,000 permutations, where p-adjust <0.05, and FDR <0.05 were considered significant.

Another data set deals with PCSC tumours. The experiment in a line: PCSC xenograft model. It is filed as in vivo, NRG mice. As to conditions: combination therapy study, every three days. The source says: In vivo treatment schedule.
Data set [6] in a line: Drug loading using BAQ13 NPs. In kind it is physicochemical. The method, then: as §3
Next investigation was whether liposome-like BAQ ONNs can encapsulate additional agents. Upon nanoprecipitation of BAQ13 and various agents, homogeneous NPs with monomodal size distributions spontaneously formed (Table 2 and FIG. 9G).

Where [7] appears, read: BAQ13 NPs loaded with the drug or dye.

Read-outs that look alike come from different tables or passages of the source.

pheophorbide a: the induction of autophagy entry in the data set on OSC-3 cells was “induced autophagy”.

With `CCc1c2c(nc3ccc(OC(=O)N4CCC(N5CCCCC5)CC4)cc13)-c1cc3c(c(=O)n1C2)COC(=O)[C@]3(O)CC` [Irinotecan], the Median Survival in the data set on HT29 tumours (survival analysis in text) and in the data set on HT29 tumours (treatment terminated on the 24th day) was 36 days in each case. In addition, the IC50 (usually the concentration at which inhibition is half-maximal) with HCT116 came to 17 ± 1 µM.

Take `CO/C1=C\C(C)=C\[C@@H](C)[C@@H](O)[C@@H](C)C/C(C)=C/C=C/[C@H](OC)[C@@H]([C@@H](C)[C@@H](O)[C@H](C)[C@@]2(O)C[C@@H](O)[C@H](C)[C@@H](C(C)C)O2)OC1=O` [bafilomycin A1]: the “LC3B-II and SQSTM1/p62 protein levels” value in data set [1] is reported as “Such increases were also observed”.

Take `CCCCCCCCCCCCNC(=O)[C@@H](N)COC.Cl` [MSDH, O-Methyl-Serine-Dodecylamide Hydrochloride]: the IC50 in the data set on MIA PaCa-2 (Homo sapiens, MIA PaCa-2, 24 h) worked out at 55.5 ± 7.1 µM; with HT29 (Homo sapiens, HT-29, 24 h), 30.3 ± 4.8 µM. Moreover, in the data set with Red blood cells, the “haemolytic response to pH” value was “only a weak haemolytic response to pH”. The “pH plateau upon titration with HCl” value in data set [2] is on record as 6.2.

With `CCCCCCCCCCCCCN(CCNc1ccnc2cc(Cl)ccc12)CCNc1ccnc2cc(Cl)ccc12` [BAQ13], in data set [3], the “effect alone versus combination treatment with Lys05 and MSDH” value is “more effective than combination treatment with Lys05 and MSDH”. Besides, the “fold more potent than HCQ” value in [3] came to 30 fold. The “fold higher potency than HCQ” value in data set [4] is listed as approximately 20 fold. For the same molecule, the “fold higher potency than Lys05” value in [4] is recorded as approximately 3 fold. In addition, the “fold higher potency than MSDH” value in data set [4] was approximately 10 fold. Further, the 50% inhibitory concentration (IC50) in the data set with MIA PaCa-2 (24 h) is 4.2 ± 1 µM; in the data set on BXPC-3, 3.1 ± 0.2 µM; in the data set with PANC-1, 4.3 ± 1 µM; in the data set with HT29 (24 h) it was 3 ± 1.1 µM; with MCF-7, 3.7 ± 0.3 µM; with H460 it was 2.2 ± 0.4 µM. Besides, the “Zeta Potential (mV)” value in [5] came to 39.7 ± 1.9 mV. In [5] (DLS), this molecule gave a PDI of 0.097. Besides, in data set [5] (DLS), the “Size (nm)” value is 99.1 ± 2.1 nm. The molecule further had a downregulated genes with MIA PaCa-2 cells of 181. The molecule also registered an upregulated genes in the data set with MIA PaCa-2 cells of 209. Moreover, the “differentially expressed genes (DEGs)” value with MIA PaCa-2 cells (fold change≥2 and p value≤0.05) is 390.

In the case of `CC(=O)c1cc2c(o1)C(=O)c1ccccc1C2=O` [Napabucasin], the tumour growth result in the data set with PCSC tumours is given as “no antitumour effect”. In data set [6] (setting [7]), this molecule came in with a PDI of 0.101 and a Size/diameter of 110 nm. Moreover, the Encapsulation efficiency in data set [6] (drug or dye loaded in BAQ13 NPs) turned out to be 85%. Besides, the Drug-loading content in data set [6] (drug or dye loaded in BAQ13 NPs, mass ratio) worked out at 20%.

These data come from patent publication US20230348419A1, “BIAMINOQUINOLINES AND NANOFORMULATIONS FOR CANCER TREATMENT” (The Regents of the University of California, priority 2019, published 2023).
